According to patent US20150191469A1, “COMPOUNDS AND METHODS FOR TREATING HIV” (priority 2012, published 2015):

Each molecule was assayed on HIV (assay: MT4 assay: antiviral HIV activity (cell protection, cell titer glo readout at 96 hours)). Conditions: Human immunodeficiency virus 1, MT4, 96 h, MT4 cells, cell titer glo readout at 96 hours, 10 point dose response; read-out: HIV MT4 Assay IC50.
Format: cell-based
Experimental: Antiviral HIV activity and cytotoxicity values for compounds of the invention from Table 1 were measured in parallel in the HTLV-1 transformed cell line MT-4 based on the method previously described (Hazen et al., 2007, In vitro antiviral activity of the novel, tyrosyl-based human immunodeficiency virus (HIV) type 1 protease inhibitor brecanavir (GW640385) in combination with other antiretrovirals and against a panel of protease inhibitor-resistant HIV (Hazen et al., “In vitro antiviral activity of the novel, tyrosyl-based human immunodeficiency virus (HIV) type 1 protease inhibitor brecanavir (GW640385) in combination with other antiretrovirals and against a panel of protease inhibitor-resistant HIV”, Antimicrob. Agents Chemother. 2007, 51: 3147-3154; and Pauwels et al., “Sensitive and rapid assay on MT-4 cells for the detection of antiviral compounds against the AIDS virus”, J. of Virological Methods 1987, 16: 171-185).
Luciferase activity was measured 96 hours later by adding a cell titer glo (Promega, Madison, Wis.). Percent inhibition of cell protection data was plotted relative to no compound control. Under the same condition, cytotoxicity of the compounds was determined using cell titer Glo™ (Promega, Madison, Wis.). IC50s were determined from a 10 point dose response curve using 3-4-fold serial dilution for each compound, which spans a concentration range >1000 fold.
These values are plotted against the molar compound concentrations using the standard four parameter logistic equation:
y=((Vmax*x̂n)/(K̂n+x̂n))+Y2
Y2=minimum y n=slope factor
Vmax=maximum y x=compound concentration [M]

| Compound | IC50 [nM] |
| --- | --- |
| Cc1nc2c(cc(-c3ccnc(-c4ccc5cn(C)nc5c4)c3)n2C)c(-c2cc(F)c3c(c2C)CCCO3)c1[C@H](OC(C)(C)C)C(=O)O (atropisomer, axis not shown) [Example 53] | 2.1 |
| Cc1nc2c(cc(-c3ccnc(-c4ccc5c(cnn5C5CC5)c4)c3)n2C)c(-c2cc(F)c3c(c2C)CCCO3)c1[C@H](OC(C)(C)C)C(=O)O (atropisomer, axis not shown) [Example 54] | 4.6 |
| Cc1nc2c(cc(-c3ccnc(-c4ccc5[nH]c(=O)[nH]c5c4)c3)n2C)c(-c2cc(F)c3c(c2C)CCCO3)c1[C@H](OC(C)(C)C)C(=O)O (atropisomer, axis not shown) [Example 55] | 410 |
| Cc1nc2c(cc(-c3ccnc(-c4ccc5c(c4)NCC5)c3)n2C)c(-c2cc(F)c3c(c2C)CCCO3)c1[C@H](OC(C)(C)C)C(=O)O (atropisomer, axis not shown) [Example 56] | 15 |
| Cc1nc2c(cc(-c3ccnc(-c4ccc5c(cnn5C)c4)c3)n2C)c(-c2cc(F)c3c(c2C)CCCO3)c1[C@H](OC(C)(C)C)C(=O)O (atropisomer, axis not shown) [Example 57] | 1.4 |
| Cc1nc2c(cc(-c3ccnc(-c4cccc5c4cnn5C)c3)n2C)c(-c2cc(F)c3c(c2C)CCCO3)c1[C@H](OC(C)(C)C)C(=O)O (atropisomer, axis not shown) [Example 58] | 5.4 |
| Cc1nc2c(cc(-c3ccnc(-c4cccc5cnn(C)c45)c3)n2C)c(-c2cc(F)c3c(c2C)CCCO3)c1[C@H](OC(C)(C)C)C(=O)O (atropisomer, axis not shown) [Example 59] | 16 |
| Cc1nc2c(cc(-c3ccnc(-c4ccc5c(c4)nnn5C)c3)n2C)c(-c2cc(F)c3c(c2C)CCCO3)c1[C@H](OC(C)(C)C)C(=O)O (atropisomer, axis not shown) [Example 60] | 3.7 |
| Cc1nc2c(cc(-c3ccnc(-c4cnc5[nH]ccc5c4)c3)n2C)c(-c2cc(F)c3c(c2C)CCCO3)c1[C@H](OC(C)(C)C)C(=O)O (atropisomer, axis not shown) [Example 62] | 2.9 |
| Cc1nc2c(cc(-c3ccnc(-n4ccnc4C)c3)n2C)c(-c2cc(F)c3c(c2C)CCCO3)c1[C@H](OC(C)(C)C)C(=O)O (atropisomer, axis not shown) [Example 63] | 15.4 |
| Cc1nc2c(cc(-c3ccnc(-c4cnc5c(cnn5C)c4)c3)n2C)c(-c2cc(F)c3c(c2C)CCCO3)c1[C@H](OC(C)(C)C)C(=O)O (atropisomer, axis not shown) [Example 66] | 8.6 |
| Cc1nc2c(cc(-c3ccnc(-c4ccn5cc(C(F)(F)F)nc5c4)c3)n2C)c(-c2cc(F)c3c(c2C)CCCO3)c1[C@H](OC(C)(C)C)C(=O)O (atropisomer, axis not shown) [Example 67] | 45 |
| Cc1nc2c(cc(-c3ccnc(-c4ccc5[nH]ncc5c4C)c3)n2C)c(-c2cc(F)c3c(c2C)CCCO3)c1[C@H](OC(C)(C)C)C(=O)O (atropisomer, axis not shown) [Example 68] | 6.4 |
| Cc1nc2c(cc(-c3ccnc(-c4ccc(N(C)C)nc4)c3)n2C)c(-c2cc(F)c3c(c2C)CCCO3)c1[C@H](OC(C)(C)C)C(=O)O (atropisomer, axis not shown) [Example 69] | 4.8 |
| Cc1nc2c(cc(-c3ccnc(-c4cnc(N5CCN(C)CC5)nc4)c3)n2C)c(-c2cc(F)c3c(c2C)CCCO3)c1[C@H](OC(C)(C)C)C(=O)O (atropisomer, axis not shown) [Example 70] | 3.1 |
| Cc1nc2c(cc(-c3ccnc(-c4cnc5c(c4)CCCN5)c3)n2C)c(-c2cc(F)c3c(c2C)CCCO3)c1[C@H](OC(C)(C)C)C(=O)O (atropisomer, axis not shown) [Example 72] | 4.6 |
| Cc1nc2c(cc(-c3ccnc(N4CCn5c(C)nnc5C4)c3)n2C)c(-c2cc(F)c3c(c2C)CCCO3)c1[C@H](OC(C)(C)C)C(=O)O (atropisomer, axis not shown) [Example 79] | 645 |
| Cc1nc2c(cc(-c3ccnc(N4CCC(C)CC4)c3)n2C)c(-c2cc(F)c3c(c2C)CCCO3)c1[C@H](OC(C)(C)C)C(=O)O (atropisomer, axis not shown) [Example 80] | 21.3 |
